From paper PMC4955970, “Stable, synthetic analogs of diadenosine tetraphosphate inhibit rat and human P2X3 receptors and inflammatory pain” (Molecular Pain, 2016)
Where “and” joins values, the source holds several entries; their conditions need not be identical. Equal values may be shown once. Entries after “also recorded” stand apart in the source; their conditions may differ. Read-outs that look alike come from different tables or passages of the source.

Key:
[1] = tested on: formalin-induced nociceptive behavior; assay: Formalin test (spontaneous jerking of the injected hindpaw); assay type: in vivo, rat; settings: for in vivo IC50 per animal body weight: calculated from effective concentrations in formalin model; for IC50: locally administered concentration, coinjection with formalin
Experimental: All animal experiments were carried out in accordance with the “Guide for the Care and Use of Laboratory Animals” as adopted by the Bogomoletz Institute of Physiology Clinic of Animal Care and Use. The formalin test experiments were performed on 21-day-old male Wistar rats, weighing 40 ± 5 g according to the method described previously.[49],[50] Briefly, animal was acclimated to an acrylic observation chamber for at least 1 h before the injection of formalin (50 µl of 0.5% solution in 0.9% saline) into the dorsal surface of the right hindpaw. Immediately after the injection, each animal was returned to the observation chamber and its behavioral characteristics were recorded for 45 min. We noticed consistently observed type of response: spontaneous jerking of the injected paw. The number of jerks was measured for each 1-min block, using self-developed computer software.
Figure 8. Effects of subcutaneous Ap4A analogs on pain responses induced by intraplantar (right hindpaw) formalin injection. Rats were subcutaneously injected with formalin solution alone (0.5%, 50 µl, control) or coinjected with the formalin solution and solutions with AppCH2ppA (1 µM–100 µM, 100 µl) or AppNHppA (0.1 µM–100 µM, 100 µl). Age-matched control animals were injected with saline. (a) Time course of the effects of subcutaneous AppCH2ppA (left) and AppNHppA (right) on the number of the spontaneous jerkings of the injected paw. (b) Bar graphs of the effects of AppCH2ppA (b, c) and AppNHppA (d, e) on the integral number of spontaneous jerkings. Measurements were made during the acute phase (0–6 min) and tonic phase (7–45 min) of the formalin response. (f) Dose-response curves for AppCH2ppA (left) and AppNHppA (right) during tonic and acute phases. For each concentration 6–7 rats were used.

[2] = tested on: native P2X3Rs / P2X2/3Rs in NG neurons; assay: Whole-cell recording of α,β-meATP currents in cultured nodose ganglion (NG) neurons; assay type: cell-based, rat; settings: 1 µM, 6 min; 10 µM α,β-meATP
Experimental: Rat trigeminal, nodose, or dorsal root ganglion (TG, NG, and DRG, respectivley) neurons in culture were prepared as described previously.[46],[47] Neurons were plated on poly-L-lysine (0.2 mg/ml)-coated Petri dishes and cultured for one to two days under an atmosphere containing 5% CO2. Cells were used within two days of plating when they lacked processes. HEK293T cells were prepared as reported previously[32],[48] and transfected with rat or human full-length P2X3 cDNA subcloned into pIRES2-EGFP (Clontech, Mountain View, CA, USA).
TG, NG, DRG, or HEK cells were recorded in the whole-cell configuration while being continuously superfused (at 2 ml/min) with control solution containing (in mM): 152 NaCl, 5 KCl, 1 MgCl2, 2 CaCl2, 10 glucose, and 10 HEPES; pH was adjusted to 7.4 with NaOH and osmolarity was adjusted to 320 mOsM with glucose. […] Responses to selective P2X3R agonist α,β-methylene-ATP (α,β-meATP; resistant to ectoATPase hydrolysis, Sigma-Aldrich) were measured using an EPC-9 amplifier operated by HEKA Patch Master software (HEKA Electronik, Germany). Cells were voltage-clamped at −70 mV. In most cells, series resistance was compensated by 80%. To determine EC50 values, dose-response curves were constructed for α,β-meATP by administering different agonist doses same cells and fitting data to a logistic equation (Origin 8.0, Microcal, Northampton, MA). […]

rat P2X4 receptors = molecular target: T1, rat P2X4 receptors (Rattus norvegicus, UniProt P51577); assay: Whole-cell patch clamp on HEK293 cells expressing rat P2X4 receptors (ATP-induced currents); assay type: cell-based; settings: 1 µM; 10 µM ATP every 2 min
T1 construct: expressed in transfected cells; host or cells: HEK293
T1 sequence (P51577 1-388): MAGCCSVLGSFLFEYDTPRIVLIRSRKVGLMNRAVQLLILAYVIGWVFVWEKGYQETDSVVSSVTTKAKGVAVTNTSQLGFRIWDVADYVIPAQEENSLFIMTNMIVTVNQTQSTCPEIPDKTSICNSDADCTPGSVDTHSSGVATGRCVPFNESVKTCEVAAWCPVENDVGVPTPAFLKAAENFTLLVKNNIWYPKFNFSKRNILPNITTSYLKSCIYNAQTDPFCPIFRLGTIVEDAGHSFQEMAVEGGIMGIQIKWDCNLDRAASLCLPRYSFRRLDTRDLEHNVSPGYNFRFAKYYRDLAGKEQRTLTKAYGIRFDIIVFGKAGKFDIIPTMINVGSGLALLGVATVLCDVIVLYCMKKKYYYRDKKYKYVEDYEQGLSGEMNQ

Row | IC50 ([1]; acute phase, read-out: IC50 in the acute phase of formalin test) | IC50 ([1]; tonic phase 7–45 min, read-out: IC50 in the tonic phase of formalin test) | IC50 ([1]; Rattus norvegicus, acute phase, read-out: IC50 in the acute phase of formalin test) | IC50 ([1]; Rattus norvegicus, tonic phase 7–45 min, read-out: IC50 in the tonic phase of formalin test) | Structure (SMILES) | in vivo IC50 per animal body weight [1] | inhibition of peak currents in NG neurons [2] | HAD or partial agonism effect on P2X4R-mediated currents (rat P2X4 receptors)
1 | 34.7 ± 13.2 µM | 0.29 ± 0.05 µM |  |  | Nc1ncnc2c1ncn2[C@@H]1O[C@H](COP(=O)(O)OP(=O)(O)CP(=O)(O)OP(=O)(O)OC[C@H]2O[C@@H](n3cnc4c(N)ncnc43)C(O)C2O)C(O)C1O (stereo partly drawn) [AppCH2ppA, diadenosine 5′,5′′′-P^1,P^4-(β,γ-methylene)tetraphosphate] | 0.72 nmol/kg and 0.61 µg/kg |  | 
2 |  |  | > 100 µM | 0.11 ± 0.02 µM | Nc1ncnc2c1ncn2[C@@H]1O[C@H](COP(=O)(O)OP(=O)(O)NP(=O)(O)OP(=O)(O)OC[C@H]2O[C@@H](n3cnc4c(N)ncnc43)[C@H](O)[C@@H]2O)[C@@H](O)[C@H]1O [AppNHppA, diadenosine 5′,5′′′-P^1,P^4-(β,γ-imido)tetraphosphate] | 0.28 nmol/kg and 0.23 µg/kg | 16.8 ± 11.8% | did not produce any HAD or partial agonism effects; also recorded: does not inhibit
